Data taken from ChEMBL document CHEMBL1201862, “PubChem BioAssay data set” (2004).
Active and inactive are the calls of the source.

Experiments:
HeLa = experiment: Cytotoxicity counterscreen assay for transcriptional activators of heat shock protein 70 (Hsp70). [Related pubchem assays: 1203, 1252 ]; format: functional; conditions: Homo sapiens;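 note: cells exposed to compound for 16 hours before readout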
[1] = target: Eukaryotic translation initiation factor 4H (Homo sapiens, UniProt Q15056); experiment: eIF4H binding inhibition – biochemical, uHTS, fluorescence polarization, translation initiation inhibitor project, primary screen (AID 2012)
[2] = target: Polyadenylate-binding protein 1 (Homo sapiens, UniProt P11940); experiment: blockers of PABP interaction with poly(A) – biochemical, fluorescence polarization, […] (AID 2014)
Cytochrome P450 2C9 = Cytochrome P450 2C9 (Homo sapiens, UniProt P11712); conditions: Potency
Cytochrome P450 2D6 = Cytochrome P450 2D6 (Homo sapiens, UniProt P10635);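 note: CYP2D6 member of a cytochrome P450 panel assay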
NS3 = NS3 (Hepatitis C virus, UniProt A3EZJ3); experiment: PubChem AID 2173; design: species or system Hepacivirus hominis
[3] = target: FAD-linked sulfhydryl oxidase ALR (Homo sapiens, UniProt P55789); experiment: ALR-catalysed DTT oxidation blockers – biochemical, H2O2 detection, luminescence, cherry-pick, dose response (AID 493248)
Aminopeptidase N = target: T1, Aminopeptidase N (Plasmodium falciparum FcB1/Columbia, UniProt O96935); experiment: malaria alanyl aminopeptidase activity blockers – biochemical, fluorogenic H-Leu-NHMec substrate, 1536-well (AID 1445); design: species or system Plasmodium falciparum 3D7, 3D7
T1 sequence (O96935 whole entry): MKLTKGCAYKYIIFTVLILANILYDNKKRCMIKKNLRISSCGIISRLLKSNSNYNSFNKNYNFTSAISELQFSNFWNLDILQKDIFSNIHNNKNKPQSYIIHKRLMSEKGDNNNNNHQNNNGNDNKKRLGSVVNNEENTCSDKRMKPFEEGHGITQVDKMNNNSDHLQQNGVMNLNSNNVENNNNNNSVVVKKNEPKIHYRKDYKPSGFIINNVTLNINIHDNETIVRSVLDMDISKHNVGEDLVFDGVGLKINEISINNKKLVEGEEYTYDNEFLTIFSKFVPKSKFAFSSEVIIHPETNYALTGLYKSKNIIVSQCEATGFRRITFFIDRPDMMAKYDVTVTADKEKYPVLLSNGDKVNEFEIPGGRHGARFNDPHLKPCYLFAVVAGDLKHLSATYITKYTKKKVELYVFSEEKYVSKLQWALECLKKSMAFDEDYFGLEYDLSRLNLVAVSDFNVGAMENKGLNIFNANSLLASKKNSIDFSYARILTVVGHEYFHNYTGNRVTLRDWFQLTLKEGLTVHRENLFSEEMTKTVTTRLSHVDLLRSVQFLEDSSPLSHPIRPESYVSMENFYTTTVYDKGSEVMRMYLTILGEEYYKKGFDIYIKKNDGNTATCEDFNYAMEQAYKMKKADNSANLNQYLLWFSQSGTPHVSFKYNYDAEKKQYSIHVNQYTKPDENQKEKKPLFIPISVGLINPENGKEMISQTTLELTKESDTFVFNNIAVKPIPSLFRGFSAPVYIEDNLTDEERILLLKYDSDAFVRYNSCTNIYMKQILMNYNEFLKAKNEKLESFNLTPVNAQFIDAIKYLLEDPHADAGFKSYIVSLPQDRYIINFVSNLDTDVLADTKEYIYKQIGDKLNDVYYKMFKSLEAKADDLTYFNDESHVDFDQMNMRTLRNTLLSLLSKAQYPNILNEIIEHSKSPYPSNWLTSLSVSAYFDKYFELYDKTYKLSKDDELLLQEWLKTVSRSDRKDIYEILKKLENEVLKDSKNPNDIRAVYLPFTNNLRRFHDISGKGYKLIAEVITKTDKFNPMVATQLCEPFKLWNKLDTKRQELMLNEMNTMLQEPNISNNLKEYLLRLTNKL

Leucine aminopeptidase = target: T2, Leucine aminopeptidase (Plasmodium falciparum 3D7, UniProt Q8IL11); experiment: P. falciparum M17LAP inhibitors, primary screen, biochemical, fluorogenic H-Leu-NHMec substrate, 1536-well (AID 1619); format: functional
T2 sequence (Q8IL11 whole entry): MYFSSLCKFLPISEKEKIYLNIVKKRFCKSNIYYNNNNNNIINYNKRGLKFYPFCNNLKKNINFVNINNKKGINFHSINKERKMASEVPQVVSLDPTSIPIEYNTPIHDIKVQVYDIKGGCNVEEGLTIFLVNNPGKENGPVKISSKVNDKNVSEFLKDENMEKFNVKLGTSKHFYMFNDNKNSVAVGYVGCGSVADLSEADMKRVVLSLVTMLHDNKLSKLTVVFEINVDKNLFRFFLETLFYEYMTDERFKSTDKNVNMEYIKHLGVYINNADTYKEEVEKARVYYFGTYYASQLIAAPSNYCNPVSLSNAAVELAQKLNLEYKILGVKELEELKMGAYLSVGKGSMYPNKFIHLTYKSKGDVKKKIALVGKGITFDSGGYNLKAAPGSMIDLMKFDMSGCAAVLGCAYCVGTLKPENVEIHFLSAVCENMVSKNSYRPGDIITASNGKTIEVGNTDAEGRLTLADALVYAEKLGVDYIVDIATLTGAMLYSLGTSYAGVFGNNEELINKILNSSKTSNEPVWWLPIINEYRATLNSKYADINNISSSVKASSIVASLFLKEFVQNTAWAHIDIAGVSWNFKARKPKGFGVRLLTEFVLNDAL

[4] = target: T3, Alkaline phosphatase, tissue-nonspecific isozyme (Homo sapiens, UniProt P05186)
T3 sequence (P05186 whole entry): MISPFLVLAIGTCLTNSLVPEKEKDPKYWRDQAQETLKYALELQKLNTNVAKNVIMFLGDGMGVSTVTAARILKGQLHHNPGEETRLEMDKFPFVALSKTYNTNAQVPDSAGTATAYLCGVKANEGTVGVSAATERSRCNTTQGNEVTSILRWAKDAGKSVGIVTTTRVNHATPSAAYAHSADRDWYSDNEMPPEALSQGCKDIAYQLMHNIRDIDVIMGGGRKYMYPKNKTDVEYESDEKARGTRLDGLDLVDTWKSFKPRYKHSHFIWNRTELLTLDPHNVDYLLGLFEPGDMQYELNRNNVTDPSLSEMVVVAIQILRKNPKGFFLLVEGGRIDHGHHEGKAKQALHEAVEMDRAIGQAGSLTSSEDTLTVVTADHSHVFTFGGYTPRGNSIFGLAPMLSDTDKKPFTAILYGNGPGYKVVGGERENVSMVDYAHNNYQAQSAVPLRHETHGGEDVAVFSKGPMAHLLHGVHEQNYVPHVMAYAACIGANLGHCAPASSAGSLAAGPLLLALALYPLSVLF

Cytochrome P450 2C19 = Cytochrome P450 2C19 (Homo sapiens, UniProt P33261); experiment: Cytochrome panel assay with activity outcomes. Panel member name: p450-cyp2c19 Compounds with AC50 equal or less than 10 uM are considered active; format: functional; conditions: read-out: AC50
[5] = HEK-293T viability loss after treatment – luminescence, T-cell screen hits, cytotoxicity control for TCR NF-kB inhibitor project, dose response (AID 489026); format: functional, cell-based;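 note: cells exposed to compound about 14 hours before the viability readout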
[6] = Luminescence Cell-Based Dose Confirmation HTS to Identify Inhibitors of Platelet Dense Granule Release. [Related pubchem assays: 1663 (Primary HTS), 1678 (Summary of Project)]; format: functional
[7] = NIH3T3 cell viability loss – ATP luminescence, mouse fibroblasts, counter-screen, dose response (AID 2010); format: functional, cell-based;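 note: cells exposed to compound for about 90 hours before reading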
[8] = target: DNA dC->dU-editing enzyme APOBEC-3A (Homo sapiens, UniProt P31941); experiment: Dose Response confirmation of small molecule APOBEC3A DNA Deaminase Inhibitors via a fluorescence-based single-stranded DNA deaminase assay. [Related pubchem assays (depositor defined):AID493011, AID493024]; format: functional
[9] = target: T4, Short transient receptor potential channel 4 (Mus musculus, UniProt Q9QUQ5); experiment: block of DAMGO-driven TRPC4 calcium entry – cell-based, HEK293 TRPC4/mu-opioid, Fluo-4 calcium, dose response (AID 434942); format: functional;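 note: potency of inhibitors blocking the TRPC4 calcium response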
T4 sequence (Q9QUQ5 whole entry): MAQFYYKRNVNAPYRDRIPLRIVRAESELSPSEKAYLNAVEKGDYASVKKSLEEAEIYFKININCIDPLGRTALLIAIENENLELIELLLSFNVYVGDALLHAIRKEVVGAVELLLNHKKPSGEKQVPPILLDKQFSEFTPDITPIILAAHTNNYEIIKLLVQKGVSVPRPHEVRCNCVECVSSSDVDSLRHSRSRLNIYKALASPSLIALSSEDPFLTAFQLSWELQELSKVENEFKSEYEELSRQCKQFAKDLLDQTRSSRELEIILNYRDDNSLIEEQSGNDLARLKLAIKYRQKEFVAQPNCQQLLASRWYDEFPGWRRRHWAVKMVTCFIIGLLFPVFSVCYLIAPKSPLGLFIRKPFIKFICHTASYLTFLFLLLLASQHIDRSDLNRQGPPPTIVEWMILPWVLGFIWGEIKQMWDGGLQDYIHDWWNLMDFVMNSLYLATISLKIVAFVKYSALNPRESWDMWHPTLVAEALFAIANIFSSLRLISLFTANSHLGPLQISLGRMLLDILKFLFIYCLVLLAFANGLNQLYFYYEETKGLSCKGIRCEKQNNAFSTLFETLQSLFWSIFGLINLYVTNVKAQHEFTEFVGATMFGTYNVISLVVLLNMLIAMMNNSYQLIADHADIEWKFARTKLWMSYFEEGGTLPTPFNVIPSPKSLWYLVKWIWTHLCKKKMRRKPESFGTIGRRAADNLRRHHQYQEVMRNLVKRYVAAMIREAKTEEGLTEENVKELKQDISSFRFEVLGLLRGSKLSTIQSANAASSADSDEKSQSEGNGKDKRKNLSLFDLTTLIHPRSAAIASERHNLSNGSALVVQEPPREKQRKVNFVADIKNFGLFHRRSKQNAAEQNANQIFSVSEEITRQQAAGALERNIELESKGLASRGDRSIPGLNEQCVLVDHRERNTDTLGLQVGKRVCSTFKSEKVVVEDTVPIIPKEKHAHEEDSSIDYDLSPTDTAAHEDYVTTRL

[10] = target: Luciferin 4-monooxygenase (Photinus pyralis, UniProt P08659); experiment: inhibition of purified Photinus pyralis luciferase – biochemical, luminescence, dose response (AID 1891)
[11] = Trypanosoma cruzi growth suppression in host cells – NIH3T3 host cells, beta-gal luminescence, confirmation (AID 2044); format: functional, cell-based;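 note: intracellular parasites grown in NIH/3T3 mouse fibroblasts as host cells; luminescent beta-galactosidase reporter signal from transgenic T. cruzi replicating inside host cells; inhibitors lower the luminescence signal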
[12] = target: DNA dC->dU-editing enzyme APOBEC-3G (Homo sapiens, UniProt Q9HC16); format: functional;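 note: Dose-response counterscreen measuring inhibition of APOBEC3G DNA deaminase activity, run while confirming APOBEC3A inhibitors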
Hexokinase HKDC1 = target: T5, Hexokinase HKDC1 (Homo sapiens, UniProt Q2TB90); experiment: inhibition of HKDC1 glucose phosphorylation – biochemical, W721R variant, dose response (AID 504729); format: functional
T5 sequence (Q2TB90 whole entry): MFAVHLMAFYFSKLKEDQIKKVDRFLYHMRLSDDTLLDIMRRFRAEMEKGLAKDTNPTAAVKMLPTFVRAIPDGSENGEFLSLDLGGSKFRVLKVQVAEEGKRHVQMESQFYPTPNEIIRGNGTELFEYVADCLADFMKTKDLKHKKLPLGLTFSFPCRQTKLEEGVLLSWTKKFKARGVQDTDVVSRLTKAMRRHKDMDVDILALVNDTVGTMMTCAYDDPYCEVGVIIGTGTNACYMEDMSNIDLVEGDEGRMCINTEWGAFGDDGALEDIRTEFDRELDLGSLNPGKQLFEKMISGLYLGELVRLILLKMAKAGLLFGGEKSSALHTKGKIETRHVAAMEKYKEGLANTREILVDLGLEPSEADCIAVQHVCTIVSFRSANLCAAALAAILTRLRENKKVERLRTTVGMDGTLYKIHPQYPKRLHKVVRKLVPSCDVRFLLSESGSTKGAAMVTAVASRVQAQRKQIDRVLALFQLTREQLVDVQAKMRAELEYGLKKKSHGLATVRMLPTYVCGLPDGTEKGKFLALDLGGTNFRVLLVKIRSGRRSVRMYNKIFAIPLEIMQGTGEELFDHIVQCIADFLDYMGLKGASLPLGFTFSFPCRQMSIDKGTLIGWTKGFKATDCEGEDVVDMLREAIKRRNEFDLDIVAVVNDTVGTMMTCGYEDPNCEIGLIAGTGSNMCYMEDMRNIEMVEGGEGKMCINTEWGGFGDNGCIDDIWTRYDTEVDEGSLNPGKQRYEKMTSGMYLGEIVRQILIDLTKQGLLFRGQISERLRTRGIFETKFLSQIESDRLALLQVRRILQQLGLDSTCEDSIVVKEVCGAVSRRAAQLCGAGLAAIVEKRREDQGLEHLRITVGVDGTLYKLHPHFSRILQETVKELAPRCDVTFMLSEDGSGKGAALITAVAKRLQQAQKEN

Polyadenylate-binding protein 1, sequence (P11940 whole entry): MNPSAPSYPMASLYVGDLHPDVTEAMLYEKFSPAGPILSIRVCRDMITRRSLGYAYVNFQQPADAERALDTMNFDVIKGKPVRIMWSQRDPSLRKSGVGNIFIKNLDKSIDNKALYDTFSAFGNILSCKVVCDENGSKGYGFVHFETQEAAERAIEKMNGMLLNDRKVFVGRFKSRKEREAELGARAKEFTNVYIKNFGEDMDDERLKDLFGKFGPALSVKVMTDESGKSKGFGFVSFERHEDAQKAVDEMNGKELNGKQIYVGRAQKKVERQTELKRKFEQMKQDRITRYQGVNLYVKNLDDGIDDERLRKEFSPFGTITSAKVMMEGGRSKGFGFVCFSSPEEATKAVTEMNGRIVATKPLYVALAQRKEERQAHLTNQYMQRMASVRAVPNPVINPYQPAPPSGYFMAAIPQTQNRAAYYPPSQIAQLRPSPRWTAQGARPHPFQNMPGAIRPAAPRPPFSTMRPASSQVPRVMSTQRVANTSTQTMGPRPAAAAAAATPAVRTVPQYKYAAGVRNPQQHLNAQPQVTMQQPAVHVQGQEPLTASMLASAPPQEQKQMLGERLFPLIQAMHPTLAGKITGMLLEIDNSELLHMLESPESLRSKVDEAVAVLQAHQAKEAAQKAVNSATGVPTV
Cytochrome P450 2C9, sequence (P11712 whole entry): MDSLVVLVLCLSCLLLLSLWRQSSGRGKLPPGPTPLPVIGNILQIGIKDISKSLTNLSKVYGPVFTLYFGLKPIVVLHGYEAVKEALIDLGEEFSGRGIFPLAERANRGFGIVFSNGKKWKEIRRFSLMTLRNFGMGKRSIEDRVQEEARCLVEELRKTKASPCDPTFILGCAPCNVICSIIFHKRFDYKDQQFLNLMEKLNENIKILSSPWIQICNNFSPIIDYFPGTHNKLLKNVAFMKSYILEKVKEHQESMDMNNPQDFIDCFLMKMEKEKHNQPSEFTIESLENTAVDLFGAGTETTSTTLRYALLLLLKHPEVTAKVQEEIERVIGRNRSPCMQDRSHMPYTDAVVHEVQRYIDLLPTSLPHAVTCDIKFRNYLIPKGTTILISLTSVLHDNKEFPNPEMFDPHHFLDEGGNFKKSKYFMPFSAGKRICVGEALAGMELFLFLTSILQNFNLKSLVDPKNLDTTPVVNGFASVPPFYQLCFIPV
DNA dC->dU-editing enzyme APOBEC-3G, sequence (Q9HC16 whole entry): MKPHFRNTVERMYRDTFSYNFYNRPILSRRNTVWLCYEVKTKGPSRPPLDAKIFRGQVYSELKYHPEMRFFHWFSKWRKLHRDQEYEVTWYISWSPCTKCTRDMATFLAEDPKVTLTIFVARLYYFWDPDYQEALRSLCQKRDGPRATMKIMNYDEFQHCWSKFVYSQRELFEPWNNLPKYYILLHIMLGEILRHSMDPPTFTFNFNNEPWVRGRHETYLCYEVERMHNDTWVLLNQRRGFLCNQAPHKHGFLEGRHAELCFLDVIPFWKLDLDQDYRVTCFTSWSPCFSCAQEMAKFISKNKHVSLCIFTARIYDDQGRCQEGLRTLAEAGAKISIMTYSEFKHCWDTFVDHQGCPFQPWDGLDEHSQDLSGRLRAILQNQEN
NS3, sequence (A3EZJ3 whole entry): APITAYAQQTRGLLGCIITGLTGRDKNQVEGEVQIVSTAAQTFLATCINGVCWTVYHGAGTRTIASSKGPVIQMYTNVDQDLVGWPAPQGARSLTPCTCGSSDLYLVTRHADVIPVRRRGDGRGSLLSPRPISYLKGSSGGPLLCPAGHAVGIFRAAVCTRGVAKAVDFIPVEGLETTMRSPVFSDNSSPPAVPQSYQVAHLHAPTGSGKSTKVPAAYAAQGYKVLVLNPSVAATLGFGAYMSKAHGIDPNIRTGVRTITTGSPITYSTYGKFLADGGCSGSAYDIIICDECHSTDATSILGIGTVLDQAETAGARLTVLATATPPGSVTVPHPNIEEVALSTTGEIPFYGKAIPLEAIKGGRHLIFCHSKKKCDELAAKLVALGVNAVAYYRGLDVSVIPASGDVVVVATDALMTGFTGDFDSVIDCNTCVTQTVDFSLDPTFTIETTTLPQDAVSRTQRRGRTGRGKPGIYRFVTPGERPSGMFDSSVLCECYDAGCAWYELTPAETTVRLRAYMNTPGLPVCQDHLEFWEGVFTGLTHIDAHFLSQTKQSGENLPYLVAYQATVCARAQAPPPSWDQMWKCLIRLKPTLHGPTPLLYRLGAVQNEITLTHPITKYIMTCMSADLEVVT
DNA dC->dU-editing enzyme APOBEC-3A, sequence (P31941 whole entry): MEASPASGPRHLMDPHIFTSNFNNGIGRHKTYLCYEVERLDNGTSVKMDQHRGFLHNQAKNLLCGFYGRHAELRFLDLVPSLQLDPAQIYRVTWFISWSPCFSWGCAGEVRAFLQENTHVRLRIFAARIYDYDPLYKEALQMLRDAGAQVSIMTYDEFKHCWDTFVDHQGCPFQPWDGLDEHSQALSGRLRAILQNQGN
Cytochrome P450 2C19, sequence (P33261 whole entry): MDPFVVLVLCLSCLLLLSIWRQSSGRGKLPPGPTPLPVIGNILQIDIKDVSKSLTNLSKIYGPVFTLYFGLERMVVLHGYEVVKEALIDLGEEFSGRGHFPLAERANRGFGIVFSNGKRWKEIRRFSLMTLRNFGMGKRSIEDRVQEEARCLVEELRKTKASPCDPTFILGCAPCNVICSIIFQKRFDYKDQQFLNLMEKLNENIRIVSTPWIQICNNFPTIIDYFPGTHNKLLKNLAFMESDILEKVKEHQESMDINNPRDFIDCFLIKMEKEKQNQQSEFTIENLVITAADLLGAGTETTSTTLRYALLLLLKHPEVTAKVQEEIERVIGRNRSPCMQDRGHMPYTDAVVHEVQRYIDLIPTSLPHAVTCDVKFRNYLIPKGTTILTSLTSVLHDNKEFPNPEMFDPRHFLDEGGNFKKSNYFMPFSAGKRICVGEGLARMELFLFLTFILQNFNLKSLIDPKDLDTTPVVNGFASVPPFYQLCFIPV
Luciferin 4-monooxygenase, sequence (P08659 whole entry): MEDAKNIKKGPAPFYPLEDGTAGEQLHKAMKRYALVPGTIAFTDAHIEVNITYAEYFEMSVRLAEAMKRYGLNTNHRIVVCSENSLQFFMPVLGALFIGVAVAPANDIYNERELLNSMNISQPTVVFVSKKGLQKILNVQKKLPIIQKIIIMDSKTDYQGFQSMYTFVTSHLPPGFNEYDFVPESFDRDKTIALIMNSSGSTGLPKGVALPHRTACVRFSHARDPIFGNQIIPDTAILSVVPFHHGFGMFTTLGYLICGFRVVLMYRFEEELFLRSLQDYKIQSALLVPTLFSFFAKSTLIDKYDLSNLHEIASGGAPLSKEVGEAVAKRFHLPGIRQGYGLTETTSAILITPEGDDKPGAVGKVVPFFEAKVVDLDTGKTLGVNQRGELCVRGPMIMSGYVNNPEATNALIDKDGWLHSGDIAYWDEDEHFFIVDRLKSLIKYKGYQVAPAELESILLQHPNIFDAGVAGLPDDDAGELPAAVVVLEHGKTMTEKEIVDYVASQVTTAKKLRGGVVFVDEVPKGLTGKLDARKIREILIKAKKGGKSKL
FAD-linked sulfhydryl oxidase ALR, sequence (P55789 whole entry): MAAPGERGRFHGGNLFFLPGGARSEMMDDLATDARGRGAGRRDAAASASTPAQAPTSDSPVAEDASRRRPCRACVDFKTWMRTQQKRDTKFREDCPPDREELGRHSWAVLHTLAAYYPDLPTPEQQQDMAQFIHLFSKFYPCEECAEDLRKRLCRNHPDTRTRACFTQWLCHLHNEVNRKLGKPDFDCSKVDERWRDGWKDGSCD
Cytochrome P450 2D6, sequence (P10635 whole entry): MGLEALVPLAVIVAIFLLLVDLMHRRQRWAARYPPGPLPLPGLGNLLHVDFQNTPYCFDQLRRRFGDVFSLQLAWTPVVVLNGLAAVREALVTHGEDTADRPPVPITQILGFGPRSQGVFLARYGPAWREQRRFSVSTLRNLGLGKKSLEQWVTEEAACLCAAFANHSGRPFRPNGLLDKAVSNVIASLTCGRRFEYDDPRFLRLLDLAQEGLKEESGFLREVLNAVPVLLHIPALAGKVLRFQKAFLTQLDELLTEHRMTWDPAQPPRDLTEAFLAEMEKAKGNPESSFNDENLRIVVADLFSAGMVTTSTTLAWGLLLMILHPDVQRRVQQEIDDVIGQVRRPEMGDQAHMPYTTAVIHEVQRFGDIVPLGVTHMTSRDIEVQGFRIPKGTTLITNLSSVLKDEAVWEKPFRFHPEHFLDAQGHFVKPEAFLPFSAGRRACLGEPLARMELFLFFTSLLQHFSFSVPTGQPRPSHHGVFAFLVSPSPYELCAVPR

For `O=C(Oc1ccc(F)cc1C(=O)/C=C/c1cccs1)c1cccc([N+](=O)[O-])c1`, the CC50 (HeLa) was > 33 µM (not active).

In the case of `CCOc1ccc(NC(=O)C2CCCN2C(=O)Oc2ccccc2)cc1` (stereo unspecified), the IC50 [1] is reported as > 100 µM (inactive) and the IC50 [2] is reported as 1.85 µM (active).

With `CN1CCc2cc3c(cc2[C@@H]1[C@@H]1OC(=O)c2c1ccc1c2OCO1)OCO3` the AC50 (Cytochrome P450 2C9) was 39.8 µM (inconclusive) and the AC50 (Cytochrome P450 2D6) was 12.6 µM (inconclusive).

In the case of `Cc1c(O)ccc(C(=O)CN2CCN(Cc3ccc4c(c3)OCO4)CC2)c1O`, the CC50 (HeLa) is reported as > 99 µM (not active).

In the case of `COc1ccc(S(=O)(=O)NC2=NC(=O)/C(=C/c3ccco3)S2)cc1`, the IC50 (NS3) is reported as 6.31 µM (active), the AC50 [3] is reported as 14.6 µM (active) and the IC50 (Aminopeptidase N) is reported as 99.7 µM (active). The IC50 (Leucine aminopeptidase) was 124 µM (active).

In the case of `Oc1c(/C=N/Nc2cccc3cccnc23)ccc2ccccc12`, the EC50 [4] is reported as > 100 µM (not active).

With `CCNC(=S)NNC(=O)c1cc(CC(C)C)nc2ccccc12` the AC50 (Cytochrome P450 2C19) was 0.178 µM (inconclusive) and the EC50 [4] was 63 µM (not active).

With `CCCCCn1c2c(c(=N)c3ccccc31)CCC2` the IC50 [5] was > 80 µM (inactive), the IC50 [1] was > 100 µM (inactive) and the EC50 [6] was 0.788 µM (active). The IC50 [2] was 5.93 µM (active), the EC50 [7] was > 60 µM (not active) and the EC50 (cells) was 0.006 µM (active). The IC50 [8] was 2.62 µM (active), the EC50 [9] was 1.5 µM (active) and the EC50 [10] was > 112 µM (not active). For the same compound, the EC50 [11] was < 0.1 µM (active) and the IC50 [12] was 3.19 µM (active).

With `Cc1cc2cc(CCNC(=O)c3ccc(S(=O)(=O)N4CCCC4)cc3)c(O)nc2cc1C` the IC50 (Hexokinase HKDC1) was 13.6 µM (active).

In the case of `CC(C)C[C@H]1C(=O)N2CCC[C@@H]2[C@]2(O)O[C@](NC(=O)[C@H]3C=C4c5cccc6[nH]cc(c56)C[C@H]4N(C)C3)(C(C)C)C(=O)N12`, the AC50 (Cytochrome P450 2C9) is reported as 12.6 µM (inconclusive).
